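Protocol summary: plate cells (96-well), add compound at 5 concentrations, incubate 48 h, interpolate endpoints linearly. The concentration for full growth arrest is given as TGI.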
How the values were obtained:
Assay in all cases: growth of human tumour cells (NCI), 48 h
[1] = tested on: SK-MEL-5 melanoma
[2] = tested on: MCF7 breast
[3] = tested on: MALME-3M melanoma
[4] = tested on: SK-OV-3 ovarian
[5] = tested on: DU-145 prostate
[6] = tested on: SK-MEL-2 melanoma
[7] = tested on: NCI-H460 lung
[8] = tested on: M14 melanoma
[9] = tested on: A498 renal
[10] = tested on: SN12C renal
[11] = tested on: OVCAR-4 ovarian
[12] = tested on: SF-539 CNS
[13] = tested on: SNB-19 CNS
[14] = tested on: MDA-MB-231 breast
[15] = tested on: HOP-62 NSCLC
[16] = tested on: OVCAR-8 ovarian
[17] = tested on: IGROV1 ovarian
[18] = tested on: SK-MEL-28 melanoma
[19] = tested on: HT29 colon
[20] = tested on: HCT-15 colon
[21] = tested on: SNB-75 CNS
[22] = tested on: MDA-MB-435
[23] = tested on: SF-295 CNS
[24] = tested on: RXF 393 renal
[25] = tested on: 786-0 renal
[26] = tested on: CAKI-1 renal
[27] = tested on: U251 CNS
[28] = tested on: OVCAR-5 ovarian
[29] = tested on: HS 578T breast
[30] = tested on: PC-3 prostate
[31] = tested on: TK-10 renal
[32] = tested on: LOX IMVI melanoma
[33] = tested on: NCI/ADR-RES ovarian
[34] = tested on: K-562 leukemia
[35] = tested on: HCC-2998 colon
[36] = tested on: T-47D breast
[37] = tested on: A549 NSCLC
[38] = tested on: SW-620 colon
[39] = tested on: ACHN renal
[40] = tested on: UACC-62 melanoma
[41] = tested on: NCI-H23 lung
[42] = tested on: COLO 205 colon
[43] = tested on: EKVX NSCLC
[44] = tested on: UO-31 renal
[45] = tested on: BT-549 breast
[46] = tested on: SF-268 CNS
[47] = tested on: OVCAR-3 ovarian
[48] = tested on: MOLT-4 leukemia
[49] = tested on: RPMI-8226 leukemia
[50] = tested on: NCI-H226 lung
[51] = tested on: NCI-H522 lung
[52] = tested on: CCRF-CEM leukemia
[53] = tested on: HOP-92 NSCLC
[54] = tested on: HCT-116 colon
[55] = tested on: UACC-257 melanoma
[56] = tested on: KM12 colon
[57] = tested on: MDA-N
[58] = tested on: HL-60(TB) leukemia
[59] = tested on: SR leukemia

Clc1ccccc1C(Nc1cnccn1)Nc1cnccn1
TGI [1]: > 100 µM
TGI [2]: > 100 µM
TGI [3]: > 100 µM
TGI [4]: > 100 µM
TGI [5]: > 100 µM
TGI [6]: > 100 µM
TGI [7]: > 100 µM
TGI [8]: > 100 µM
TGI [9]: > 100 µM
TGI [10]: > 100 µM
TGI [11]: > 100 µM
TGI [12]: > 100 µM
TGI [13]: > 100 µM
TGI [14]: > 100 µM
TGI [15]: > 100 µM
TGI [16]: > 100 µM
TGI [17]: > 100 µM
TGI [18]: > 100 µM
TGI [19]: > 100 µM
TGI [20]: > 100 µM
TGI [21]: > 100 µM
TGI [22]: > 100 µM
TGI [23]: > 100 µM
TGI [24]: > 100 µM
TGI [25]: > 100 µM
TGI [26]: > 100 µM
TGI [27]: > 100 µM
TGI [28]: > 100 µM
TGI [29]: > 100 µM
TGI [30]: > 100 µM
TGI [31]: > 100 µM
TGI [32]: > 100 µM
TGI [33]: > 100 µM
TGI [34]: > 100 µM
TGI [35]: > 100 µM
TGI [36]: > 100 µM
TGI [37]: > 100 µM
TGI [38]: > 100 µM
TGI [39]: > 100 µM
TGI [40]: > 100 µM
TGI [41]: > 100 µM
TGI [42]: > 100 µM
TGI [43]: > 100 µM
TGI [44]: > 100 µM
TGI [45]: > 100 µM
TGI [46]: > 100 µM
TGI [47]: > 100 µM
TGI [48]: > 100 µM
TGI [49]: > 100 µM
TGI [50]: > 100 µM
TGI [51]: > 100 µM
TGI [52]: > 100 µM
TGI [53]: > 100 µM
TGI [54]: > 100 µM
TGI [55]: > 100 µM
TGI [56]: > 100 µM
TGI [57]: > 100 µM
TGI [58]: > 100 µM

ClC1=NN=C(c2c[nH]c3ccccc23)CC1NCc1ccccc1 (centres undefined)
TGI [1]: > 100 µM
TGI [3]: > 100 µM
TGI [4]: > 100 µM
TGI [5]: > 100 µM
TGI [6]: > 100 µM
TGI [7]: > 100 µM
TGI [8]: > 100 µM
TGI [9]: > 100 µM
TGI [10]: > 100 µM
TGI [12]: > 100 µM
TGI [13]: > 100 µM
TGI [14]: > 100 µM
TGI [15]: > 100 µM
TGI [16]: > 100 µM
TGI [17]: > 100 µM
TGI [18]: > 100 µM
TGI [19]: > 100 µM
TGI [20]: > 100 µM
TGI [21]: > 100 µM
TGI [22]: > 100 µM
TGI [23]: > 100 µM
TGI [24]: > 100 µM
TGI [25]: > 100 µM
TGI [26]: > 100 µM
TGI [27]: > 100 µM
TGI [28]: > 100 µM
TGI [29]: > 100 µM
TGI [30]: > 100 µM
TGI [31]: > 100 µM
TGI [32]: > 100 µM
TGI [33]: > 100 µM
TGI [34]: > 100 µM
TGI [36]: > 100 µM
TGI [37]: > 100 µM
TGI [38]: > 100 µM
TGI [39]: > 100 µM
TGI [40]: > 100 µM
TGI [41]: > 100 µM
TGI [42]: > 100 µM
TGI [43]: > 100 µM
TGI [44]: > 100 µM
TGI [45]: > 100 µM
TGI [46]: > 100 µM
TGI [47]: > 100 µM
TGI [48]: > 100 µM
TGI [49]: > 100 µM
TGI [50]: > 100 µM
TGI [51]: > 100 µM
TGI [52]: > 100 µM
TGI [53]: > 100 µM
TGI [54]: > 100 µM
TGI [55]: > 100 µM
TGI [56]: > 100 µM
TGI [57]: > 100 µM
TGI [58]: > 100 µM

CCOC(=O)c1c(N)sc2c1C(C(=O)OCC)CCCC2 (centres undefined)
TGI [1]: > 100 µM
TGI [2]: > 100 µM
TGI [3]: > 100 µM
TGI [6]: > 100 µM
TGI [7]: > 100 µM
TGI [8]: > 100 µM
TGI [9]: 75.8 µM
TGI [10]: > 100 µM
TGI [13]: > 100 µM
TGI [14]: > 100 µM
TGI [15]: > 100 µM
TGI [16]: > 100 µM
TGI [17]: > 100 µM
TGI [18]: > 100 µM
TGI [19]: > 100 µM
TGI [20]: > 100 µM
TGI [21]: > 100 µM
TGI [24]: > 100 µM
TGI [25]: > 100 µM
TGI [27]: > 100 µM
TGI [28]: > 100 µM
TGI [29]: > 100 µM
TGI [59]: > 100 µM
TGI [30]: > 100 µM
TGI [31]: > 100 µM
TGI [34]: > 100 µM
TGI [35]: > 100 µM
TGI [36]: 78.3 µM
TGI [37]: > 100 µM
TGI [38]: > 100 µM
TGI [39]: > 100 µM
TGI [40]: > 100 µM
TGI [41]: > 100 µM
TGI [42]: > 100 µM
TGI [43]: > 100 µM
TGI [44]: > 100 µM
TGI [45]: > 100 µM
TGI [48]: > 100 µM
TGI [49]: > 100 µM
TGI [50]: > 100 µM
TGI [53]: > 100 µM
TGI [54]: > 100 µM
TGI [55]: > 100 µM
TGI [56]: > 100 µM
TGI [57]: > 100 µM
TGI [58]: > 100 µM

CCN1CC2(C)CCC(OC)C34C5CC6CCC(O)(C5C(=O)O6)C(C(O)C23)C14 (centres undefined)
TGI [1]: > 100 µM
TGI [2]: > 100 µM
TGI [3]: > 100 µM
TGI [4]: > 100 µM
TGI [5]: > 100 µM
TGI [6]: > 100 µM
TGI [7]: > 100 µM
TGI [8]: > 100 µM
TGI [9]: > 100 µM
TGI [11]: > 100 µM
TGI [12]: > 100 µM
TGI [13]: > 100 µM
TGI [14]: > 100 µM
TGI [15]: > 100 µM
TGI [16]: > 100 µM
TGI [17]: > 100 µM
TGI [18]: > 100 µM
TGI [19]: > 100 µM
TGI [20]: > 100 µM
TGI [21]: > 100 µM
TGI [22]: > 100 µM
TGI [23]: > 100 µM
TGI [24]: > 100 µM
TGI [25]: > 100 µM
TGI [26]: > 100 µM
TGI [27]: > 100 µM
TGI [28]: > 100 µM
TGI [29]: > 100 µM
TGI [30]: > 100 µM
TGI [31]: > 100 µM
TGI [32]: > 100 µM
TGI [33]: > 100 µM
TGI [34]: > 100 µM
TGI [36]: > 100 µM
TGI [37]: > 100 µM
TGI [38]: > 100 µM
TGI [39]: > 100 µM
TGI [40]: > 100 µM
TGI [41]: > 100 µM
TGI [42]: > 100 µM
TGI [43]: > 100 µM
TGI [44]: > 100 µM
TGI [45]: > 100 µM
TGI [46]: > 100 µM
TGI [47]: > 100 µM
TGI [48]: > 100 µM
TGI [49]: > 100 µM
TGI [51]: > 100 µM
TGI [52]: > 100 µM
TGI [53]: > 100 µM
TGI [54]: > 100 µM
TGI [55]: > 100 µM
TGI [56]: > 100 µM
TGI [57]: > 100 µM
TGI [58]: > 100 µM

Reference: PubChem BioAssay (NCI)
